# From patent publication US20140096284A1, “METHOD FOR THE DELIVERY OF MOLECULES LYOPHILIZED ONTO MICROPARTICLES TO PLANT TISSUES” (priority 2012, published 2014)
# Columns and labels:
# onion epidermis tissue [1] = assay: Biolistic delivery of molecules lyophilized onto 0.6 μm gold microcarriers to onion epidermis tissue; assay type: cell-based; details: lyophilized onto 0.6 μm gold, observed about 30 minutes after bombardment
# Experimental: 2 μL of 0.6 μm gold particle stock was mixed with 1 μg of GFP plasmid pLMNC95 or 2 μL of a 400 ng/μL, TRITC-BSA solution. The mixture was poured on a macrocarrier, frozen in liquid nitrogen and freeze-dry for 1 hour prior to onion epidermis tissue bombardment.
# Onion epidermis tissue was obtained from the scale leaves of white onion bulbs. Rectangular (3×2.5 cm) pieces were peeled right before the bombardment and placed in solid agar media (0.5 mM of 2-(N-morpholino)ethanesulfonic acid (MES), 15 g L^−1 Bacto agar (BD), pH 5.7) with the peeled side upwards. For quantitative measurements, epidermis pieces of the same scale leaf were distributed among treatments. Tobacco leaves (Nicotiana tabacum var. Petite Havana) were obtained from 3-6 week old in vitro grown plants on MS media (MS medium (Murashige and Skoog, 1962), 2% sucrose, 2.5 g L^−1 gelrite, pH 5.7). Leaves were cut right before bombardment and put with the adaxial surface up on agar media. Hill maize immature embryos were obtained from immature ears provided by the Center for Plant Transformation—Iowa State University. […]
# Bright field and fluorescence images were taken using a Zeiss Axio star plus microscope. […] For the green channel fluorescence images a GFP BP filter (Chroma Technology Corp.) was used (λex=470 nm, beam splitter=495 nm and λem=525 nm). […]
# onion epidermis tissue [2] = assay: Control: solution deposited or incubated on onion epidermis tissue without coated projectiles; assay type: cell-based; details: solution on the surface of onion epidermis tissue
# Experimental: The dye bromophenol blue was used to test the ability of the system to deliver a chemical. As a control, a saturated solution of the dye (10 μL of a 100 μg μL^−1 mg) was deposited with a pipette on top of onion epidermis tissue. […] For the bromophenol blue delivery, the saturated solution was mixed with 0.6 μm gold microcarriers and an aliquot was deposited over a macrocarrier set. This macrocarrier set was frozen in liquid nitrogen for 5-10 minutes and then lyophilized for an hour using a lyophilizer. This macrocarrier set was subsequently used to bombard onion epidermis tissue. […] The amount of dye delivered to each cell was different, and as a consequence, different shades of purple could be observed in the bombarded tissue (FIG. 3C).
# Protein delivery can be considered a difficult challenge because proteins could be subjected to denaturation during the delivery process. […] This protein will not fluoresce if denatured (Ward and Bokman, 1982). As a control, to test if the protein could be diffused into plant cells, 10 μL of a 100 ng/μL eGFP solution were incubated for 30 minutes on the surface of intact onion epidermis tissue or bombarded with bare 0.6 μm gold microparticles. […] Lyophilization of eGFP onto 0.6 μm gold microcarriers was done using 2.5 μL of 1 μg μL^−1 solution of the protein and 60 μg of microcarriers per shot.
# tobacco leaf cells = assay: Biolistic delivery of molecules lyophilized onto 0.6 μm gold to tobacco leaf tissue; assay type: cell-based, Nicotiana tabacum var. Petite Havana; details: 250 μg per shot lyophilized onto 0.6 μm gold; tobacco leaves
# Experimental: (§1) Onion epidermis tissue was obtained from the scale leaves of white onion bulbs. Rectangular (3×2.5 cm) pieces were peeled right before the bombardment and placed in solid agar media (0.5 mM of 2-(N-morpholino)ethanesulfonic acid (MES), 15 g L^−1 Bacto agar (BD), pH 5.7) with the peeled side upwards. For quantitative measurements, epidermis pieces of the same scale leaf were distributed among treatments. Tobacco leaves (Nicotiana tabacum var. Petite Havana) were obtained from 3-6 week old in vitro grown plants on MS media (MS medium (Murashige and Skoog, 1962), 2% sucrose, 2.5 g L^−1 gelrite, pH 5.7). Leaves were cut right before bombardment and put with the adaxial surface up on agar media. Hill maize immature embryos were obtained from immature ears provided by the Center for Plant Transformation—Iowa State University. Immature embryos (1-2 mm long) were cultured as previously described (Frame et al., 2000).
# (§2) The saturated solutions of chemical or biomolecules used were done as follows (data per shot): for bromophenol blue (Sigma) delivery 10 μL of a 100 μg 1 μL^−1 mg solution were used. For plasmid DNA delivery, 2 μL of a 500 ng μL^−1 solution of the plasmid pLMNC95 (Luke Mankin and Thompson, 2001) were used for GFP expression. For mCherry expression linear dsDNA, the plasmid ER-rk (Nelson et al., 2007) was digested with the restriction enzymes SacI-HindIII. […]
# maize immature embryos = assay: Biolistic delivery of molecules lyophilized onto 0.6 μm gold to maize immature embryos; assay type: cell-based; details: 250 μg per shot lyophilized onto 0.6 μm gold; maize Hi II immature embryo scutella
# Experimental: as §1, §2
# onion epidermis tissue [3] = assay: Fluorescein diacetate staining, count of dead cells after bombardment; assay type: cell-based; details: 250 μg per shot
# Experimental: Onion epidermis tissues were submerged in 10 mL of MS liquid media to which 100 μL of a 5 mg mL^−1 of fluorescein diacetate (Alfa Aesar) solution in acetone were added. The samples were incubated for 2-5 minutes and directly observed under the green channel filter of the fluorescence microscope. For quantitative measurements, 12 images (10.5×8 mm) were taken with the 5× microscope objective scattered every 0.5 cm (4 columns×3 rows). The total amount of dead cells found on each image was counted.
# The high concentration of protein used per shot (250 μg per shot) and the lyophilization process could cause cell death by: (1) physical damage of the potential clumps produced after lyophilizing protein and microparticles and (2) excess of intracellular protein delivery reaching toxic levels. To assess cellular death, onion epidermis tissues were stained with fluorescein diacetate, which stains in fluorescent green the living cells, while the dead ones remain dark (FIG. 7A). […]
# As another example of active enzyme delivery, trypsin and RNAse A were chosen. […] The number of dead cells was measured using fluorescein diacetate staining in samples not bombarded, bombarded only with 0.6 μm gold or with 200 μg of trypsin or 40 μg of RNAse per shot. […]
Compound,intracellular delivery after bombardment (onion epidermis tissue [1]),permeation or diffusion into cells without coated projectiles (onion epidermis tissue [2]),protein delivery (red fluorescence) (tobacco leaf cells),protein delivery (red fluorescence) (maize immature embryos),"number of dead cells compared with bombardment without the protein (onion epidermis tissue [3]; 1 day after bombardment, differences were not significant)",viability of cells showing protein delivery (onion epidermis tissue [3]; stained 1 day after bombardment)
"O=S1(=O)OC(c2cc(Br)c(O)c(Br)c2)(c2cc(Br)c(O)c(Br)c2)c2ccccc21 [bromophenol blue, reference compound]",several cells were showing bluish-purple coloration,did not permeate,–,–,–,–
tetramethylrhodamine isothiocyanate labeled bovine serum albumin [TRITC-BSA],successfully delivered,–,delivery could be observed,delivery could be observed,higher,most of the cells showing TRITC-BSA delivery were alive
